This passage reports Surviving fraction and Rate constant (k) results from ChEMBL document CHEMBL1135317, “Halogenated indole-3-acetic acids as oxidatively activated prodrugs with potential for targeted cancer therapy” (2002).

The test system of experiment [1] is V79. Put plainly: Cytotoxicity against Chinese hamster lung fibroblasts (V79 cells) was determined by a clonogenic assay (colonies containing >50 cells were counted and surviving fractions (SF) calculated after 2 hr incubation). In kind it is functional, Cricetulus griseus.
A short description of experiment [2]: Rate constant for oxidation by HRP (horseradish peroxidase) was determined.
Experiment [3] has as its system V79. The experiment is described as follows: Cytotoxicity against Chinese hamster lung fibroblasts (V79 cells) was determined by a clonogenic assay and colonies containing >50 cells were counted and surviving fractions (SF) calculated after 2 h incubation at 50 uM of prodrug. In kind it is functional, Cricetulus griseus.

Turning to `Cn1cc(CC(=O)O)c2ccc(Cl)cc21`, the Surviving fraction in the experiment with V79 [1] is 1.

Regarding `O=C(O)Cc1c[nH]c2ccc(I)cc12`, in the experiment on V79 [1], the Surviving fraction was 1. For the compound `COc1ccc2[nH]cc(CC(=O)O)c2c1`, in the experiment with V79 [1], the Surviving fraction was 0.2.

In the case of `Cc1[nH]c2ccc(F)cc2c1CC(=O)O`, in the experiment with V79 [1], the Surviving fraction is listed as 1.

On to `O=C(O)Cc1c[nH]c2ccc(F)cc12`, for which, in the experiment with V79 [1], the Surviving fraction is given as less than 1e-05. Regarding `Cn1cc(CC(=O)O)c2cc(F)ccc21`, the Surviving fraction in the experiment on V79 [1] is 1. Still for that read-out and setting: under `Cc1cc(F)c2[nH]cc(CC(=O)O)c2c1` stands 1; under `Cc1ccc(F)c2[nH]cc(CC(=O)O)c12`, 1; under `Cn1cc(CC(=O)O)c2ccccc21`, 0.01. Same read-out and setting: under `O=C(O)Cc1c[nH]c2ccc(OC(F)(F)F)cc12` stands 1. With `O=C(O)Cc1c[nH]c2ccc(-c3ccc(Cl)cc3)cc12`, in experiment [2], the Rate constant (k) was 103 Ie3 M-1 s-1. For the same compound, the Surviving fraction in the experiment on V79 [1] is given as 1. On to `O=C(O)Cc1c[nH]c2cc(F)ccc12`, for which the Surviving fraction in the experiment on V79 [1] is reported as 0.01. Still for that read-out and setting: under `O=C(O)Cc1c[nH]c2c(F)cc(Cl)cc12` stands 1.

On to `Cc1[nH]c2ccccc2c1CC(=O)O`, for which the Rate constant (k) in experiment [2] was 435 Ie3 M-1 s-1. Besides, the Surviving fraction in the experiment on V79 [1] is 0.004. As to `O=C(O)Cc1c[nH]c2cc(Cl)ccc12`, the Surviving fraction in the experiment with V79 [3] is reported as 0.00085; in the experiment on V79 [1], less than 1e-05. As to `O=C(O)Cc1c[nH]c2cccc(Cl)c12`, the Surviving fraction in the experiment with V79 [1] was 1.

Consider `O=C(O)Cc1c[nH]c2ccc(-c3ccccc3)cc12`, for which the Surviving fraction in the experiment on V79 [1] is reported as 1.

For the compound `O=C(O)Cc1c[nH]c2ccccc12` [INDOLE-3-ACETIC ACID], the Surviving fraction with V79 [1] is given as 0.01. As to `O=C(O)Cc1c[nH]c2ccc(Cl)cc12`, in the experiment on V79 [1], the Surviving fraction is 0.003.

With `COc1ccc2[nH]c(C)c(CC(=O)O)c2c1` [DESCHLOROBENZOYL INDOMETHACIN], in experiment [2], the Rate constant (k) was 1710 Ie3 M-1 s-1. For the same compound, in the experiment with V79 [1], the Surviving fraction is recorded as 0.04. Regarding `O=C(O)Cc1c[nH]c2c(Cl)cccc12`, the Surviving fraction in the experiment with V79 [1] is 4e-05.

With `O=C(O)Cc1c[nH]c2cc(Cl)cc(Cl)c12`, the Surviving fraction in the experiment with V79 [1] is 1. On the same count and under the same terms, under `Cc1ccc2[nH]cc(CC(=O)O)c2c1` stands 1. Still for that read-out and setting: under `O=C(O)Cc1c[nH]c2cccc(F)c12` stands 9e-05.
